Reference: patent US10702538B2, “Ship inhibition to induce activation of natural killer cells” (THE RESEARCH FOUNDATION FOR THE STATE UNIVERSITY OF NEW YORK, priority 2014, dated 2020)
Entries after “also recorded” stand apart in the source; their conditions may differ.

Key:
RMA-Rae1 cells = test: In vivo rejection of GFP expressing RMA-Rae1 tumor cells, peritoneal lavage and flow cytometry; design: species or system C57BL/6 mice; conditions: listed as SHIPi
Method: FIG. 4A; 5×10^5 GFP expressing RMA-Rae1 cells were injected into C57BL/6 mice. Mice were treated with either SHIPi or vehicle for two days. Peritoneal lavage was performed on the third day and cells collected by lavage were analyzed by flow cytometry. Flow cytometry plots indicated GFP positive cells after removal of dead cells and non-singlets via electronic gating. FIG. 4B: Graph represents poled data from two independent experiments using at least 4 SHIPi treated mice and 4 vehicle treated mice in each experiment.
FIG. 5A: 5×10^5 GFP expressing RMA-Rae1 cells were injected into C57BL/6 once or RAG1^−/− mice. Mice were treated with either SHIPi or vehicle for two days. Peritoneal lavage was performed on the third day and cells collected by lavage were analyzed by flow cytometry. Flow cytometry plots indicated GFP positive cells after removal of dead cells and nom-singlets via electronic gating. FIG. 5B: Graph summarizes data from 5 SHIPi treated C57BL/6 mice, 5 SHIPi treated RAG1^−/− mice, 5 vehicle treated C57BL/6 mice, and 5 vehicle treated RAG1^−/− mice.
To determine if short term administration of SHIPi could have an in vivo functional effect we injected 5×10^5 RMA cells transected with the NKG2D ligand Rae1 into C57BL/6 mice. RMA is a mouse BL/6 derived T cell lymphoma cell line (raucher virus induced cell leukemia cell line); thus a rejection of a tumor graft in BL/6 mice is due to the presence of the Rae1 ligand or due to SHIPi treatment. Mice were treated with SHIPi (33 mg/kg) for two consecutive days and on the third day peritoneal lavage was performed to recover peritoneal contents. […] Finally, showing that there is a survival benefit for mice receiving short term SHIPi, C57BL/6 mice were injected with 1×10^5 RMA or RMA cells transected with the NKG2D ligand Rae1 and then were treated two consecutive days with SHIPi or with vehicle control. This was repeated each week such that mice received treatment or vehicle twice a week with five days rest in between each treatment. Treatment start days were spaced a week apart.

NK cells = test: IFNγ production assay: ex vivo stimulation of NK cells from SHIPi treated mice; assay type: in vivo; conditions: vs vehicle treated mice; for IFNγ production by NK cells following ex vivo stimulation with anti-NK1.1, anti-NKp46 or anti-NKG2D antibody: mice treated daily 33 mg/kg for two days, 33 mg/kg
Method: IFNγ production assay methods: Mice were treated daily with SHIPi (33 mg/kg) for two days. Mice were sacrificed by CO2 toxicity on the third day. Splenocytes were harvested and incubated for four-five hours in six well plates in the presence of Golgiplug (BD) either alone, in plates coated with either anti-NK1.1 (PK136), anti-NKp46 (2PA1.4) or anti-NKG2D (A10) antibody or in uncoated plates but with PMA ([…]) and ionomycin as a positive control. After incubation splenocytes were removed from the plates, Fc Receptors were blocked (2.4G2) and cells were stained with the Invitrogen Aqua Live/Dead cell exclusion dye. NK cells were identified by staining for either NK1.1 (PK136) or NKp46 (29A1.4) and […] (145-2C11). T cells were excluded. Cells were fixed and permeabilized (BD Cytofx/Cytoperm kit), intracellular Fc receptors were blocked (2.4G2) and stained for IFNγ (XMG1.2). Samples were run on a BD Fortessa flow cytometer and analyzed using FloJo software.

[1] = tested on: immunoregulatory cells (MDSC, nTreg, neutrophils); test: Preliminary studies: immunoregulatory cells in mice after SHIP inhibitor; assay type: in vivo, wt C57BL/76 mice
Method: K118 was administered in water, and in wt C57BL/76 mice.

[2] = tested on: peritoneal NK and myeloid cells; test: Peritoneal cell populations in RMA-Rae1 tumor bearing mice (flow cytometry of lavage); assay type: in vivo, C57BL/6 mice; conditions: after two days of treatment, vs vehicle
Method: FIGS. 6A-6D: SHIPi treated mice have increased peritoneal myeloid and NK cells. FIGS. 6A-D: 5×10^5 GFP expressing RMA-Rae1 cells were injected into C57BL/6 mice. Mice were treated for two days with SHIPi or vehicle alone. Peritoneal lavage was performed on the third day. Cells collected by lavage were stained with anti-NK1.1, anti-CD3ε, anti-CD19, anti-CD11b and anti-GR1 antibodies and were analyzed by flow cytometry. All populations were determined after backgating on singlets and viable cells. NK cells are NK1.1^+CD3ε^−CD19^−, T cells are CD3ε^+NK1.1^−CD19^−, B cells are CD19^+NK1.1^−CD3ε^− and myeloid cells are CD11b^+GR1^+. FIG. 6B: Graph represents pooled data from two independent experiments using at least 4 SHIPi treated mice and 4 vehicle treated mice in each experiment.
To determine if short term administration of SHIPi could have an in vivo functional effect we injected 5×10^5 RMA cells transected with the NKG2D ligand Rae1 into C57BL/6 mice. RMA is a mouse BL/6 derived T cell lymphoma cell line (raucher virus induced cell leukemia cell line); thus a rejection of a tumor graft in BL/6 mice is due to the presence of the Rae1 ligand or due to SHIPi treatment. Mice were treated with SHIPi (33 mg/kg) for two consecutive days and on the third day peritoneal lavage was performed to recover peritoneal contents. […]

[3] = tested on: RMA cells transfected with the NKG2D ligand Rae1; test: Survival of RMA-Rae1 tumor bearing mice; assay type: in vivo, C57BL/6 mice; conditions: 1×10^5 cells; treated two consecutive days each week; vs the other three groups
Method: (§1) FIG. 2: C57BL/6 mice received either RM A cells (3AC RMA and Veh RMA groups) or RMA cells transfected with the NKG2D ligand Rae1 (3AC Rae1 and Veh Rae1 groups) and were treated two consecutive days each week starting twelve hours after receiving the tumor. […] The Kaplan-Meyer survival curve represents two independent, pooled, experiments of RMA-Rae1 tumor bearing mice treated with either vehicle (n=10/experiment) or SHIPi (n=10/experiment) or one experiment of RMA tumor bearing mice treated with either vehicle (n=10/experiment) or SHIPi (n=10/experiment).
(§2) To determine if short term administration of SHIPi could have an in vivo functional effect we injected 5×10^5 RMA cells transected with the NKG2D ligand Rae1 into C57BL/6 mice. RMA is a mouse BL/6 derived T cell lymphoma cell line (raucher virus induced cell leukemia cell line); thus a rejection of a tumor graft in BL/6 mice is due to the presence of the Rae1 ligand or due to SHIPi treatment. Mice were treated with SHIPi (33 mg/kg) for two consecutive days and on the third day peritoneal lavage was performed to recover peritoneal contents. […] Finally, showing that there is a survival benefit for mice receiving short term SHIPi, C57BL/6 mice were injected with 1×10^5 RMA or RMA cells transected with the NKG2D ligand Rae1 and then were treated two consecutive days with SHIPi or with vehicle control. […]

RMA cells = test: Survival of RMA tumor bearing mice; assay type: in vivo, C57BL/6 mice; conditions: 1×10^5 cells; treated two consecutive days each week; vs vehicle treated groups
Method: as §1, §2

SHIP1 = molecular target: T1, SHIP1 (Homo sapiens, UniProt Q92835); test: SHIP1 inhibitor activity; assay type: biochemical; conditions: compared with 3AC
T1 sequence (Q92835 1-1189): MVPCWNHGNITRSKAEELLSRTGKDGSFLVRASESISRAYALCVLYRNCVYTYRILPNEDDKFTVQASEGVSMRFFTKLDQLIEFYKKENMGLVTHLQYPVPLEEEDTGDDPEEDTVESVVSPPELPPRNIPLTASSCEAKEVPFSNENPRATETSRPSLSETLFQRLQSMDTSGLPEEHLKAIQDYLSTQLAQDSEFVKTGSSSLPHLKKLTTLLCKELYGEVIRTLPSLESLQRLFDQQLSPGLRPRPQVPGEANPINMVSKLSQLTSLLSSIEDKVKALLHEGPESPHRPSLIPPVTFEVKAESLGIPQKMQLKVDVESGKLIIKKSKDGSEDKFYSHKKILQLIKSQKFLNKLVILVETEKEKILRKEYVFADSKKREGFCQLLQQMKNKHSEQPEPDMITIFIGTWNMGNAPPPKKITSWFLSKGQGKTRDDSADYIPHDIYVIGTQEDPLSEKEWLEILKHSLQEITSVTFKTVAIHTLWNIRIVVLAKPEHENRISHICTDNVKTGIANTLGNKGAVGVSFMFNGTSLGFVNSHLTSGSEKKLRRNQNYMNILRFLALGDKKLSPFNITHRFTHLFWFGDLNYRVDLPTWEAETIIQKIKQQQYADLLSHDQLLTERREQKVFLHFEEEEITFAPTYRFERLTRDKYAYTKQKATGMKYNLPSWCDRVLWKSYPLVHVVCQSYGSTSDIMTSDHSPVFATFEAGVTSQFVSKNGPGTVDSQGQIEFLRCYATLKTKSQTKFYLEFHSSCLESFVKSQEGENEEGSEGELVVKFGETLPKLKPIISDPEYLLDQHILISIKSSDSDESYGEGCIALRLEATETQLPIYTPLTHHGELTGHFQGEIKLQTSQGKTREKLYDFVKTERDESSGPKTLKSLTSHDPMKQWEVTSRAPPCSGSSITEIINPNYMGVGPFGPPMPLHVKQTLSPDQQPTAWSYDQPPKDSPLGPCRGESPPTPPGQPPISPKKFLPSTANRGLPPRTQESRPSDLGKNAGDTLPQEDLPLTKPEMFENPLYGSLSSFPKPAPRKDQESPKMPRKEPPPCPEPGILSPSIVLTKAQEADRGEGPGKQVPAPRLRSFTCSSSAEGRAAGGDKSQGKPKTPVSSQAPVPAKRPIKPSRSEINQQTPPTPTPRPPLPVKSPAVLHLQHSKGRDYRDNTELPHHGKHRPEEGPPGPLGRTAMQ

[4] = spleen, orally at 10 mg/kg in water

SMILES: CC(C)CCC[C@@H](C)[C@H]1CC[C@H]2[C@@H]3CCC4C[C@H](N)CC[C@]4(C)[C@H]3CC[C@]12C (stereo partly drawn) [3AC, 3 α-aminocholestane]
- Tumor burden (GFP positive RMA-Rae1 cells in peritoneal lavage) (RMA-Rae1 cells; C57BL/6 mice, 5×10^5 cells, 33 mg/kg two consecutive days, lavage on third day, vs vehicle, 33 mg/kg): significantly reduced tumor burden; also recorded: increased tumor rejection
- Protection against RMA-Rae1 tumor in mice lacking B and T cells (RMA-Rae1 cells; RAG1−/− mice (printed RAKG−/−), two days treatment): retained protection; also recorded: not due to B or T cells
- Protection against RMA-Rae1 tumor after in vivo depletion of NK cells (RMA-Rae1 cells; pretreated with anti-NK1.1 antibody PK136 200 ug 24 hours before tumor injection, vs isotype control antibody): protection is significantly reduced
- IFNγ production by NK cells following ex vivo stimulation with anti-NK1.1, anti-NKp46 or anti-NKG2D antibody (NK cells): significantly increased IFNγ production; also recorded: significantly increased amounts of IFNγ
- IFNγ production by NK cells following ex vivo stimulation with anti-NK1.1, anti-NKp46 or anti-NKG2D antibody (NK cells; listed as SHIPi): significantly increased IFNγ
- IFNγ production by NK cells unstimulated or stimulated with PMA and ionomycin (NK cells; mice treated two days): do not see a significant difference
- Neutrophil numbers ([1]; intraperitoneal injection): increased neutrophil numbers
- Peritoneal myeloid cells (CD11b+GR1+) [2]: increased
- Numbers of NK cells in the peritoneal cavity ([2]; listed as SHIPi): significantly increased numbers of NK cells
- Survival of RMA-Rae1 tumor bearing mice [3]: significantly increased survival
- Survival of RMA tumor bearing mice (RMA cells): no significant survival difference

SMILES: C[C@@]12CCC[C@H]1[C@@H]1CC[C@H]3C[C@@H](N)CC[C@]3(C)[C@H]1CC2.Cl [K118, 3β-amino-5α-androstane hydrochloride]
- Frequency of natural T regulatory cells (nTreg, CD4+CD25+FoxP3+) ([1]; mesenteric lymph node (mLN), orally at 10 mg/kg in water): Significant increases
- Neutrophil numbers ([1]; orally at 10 mg/kg in water): trend for increased neutrophil numbers
- Frequency of myeloid derived suppressor cells (MDSC) expressing Gr1 and Mac1 [1, 4]: significant increase
- Frequency of natural T regulatory cells (nTreg, CD4+CD25+FoxP3+) [1, 4]: Significant increases
- Water solubility (Water solubility): water-soluble
- SHIP1 inhibitor activity relative to 3AC (SHIP1): comparable SHIP1 inhibitor activity
